Assay results published in patent US5071839A, “Safe pharmaceutical composition for decreasing side effects of antiviral drugs and increasing the immune function (SDI) II” (priority 1987, dated 1991).
Read-outs that look alike come from different tables or passages of the source.

Legend:
[1] = cited from earlier work
T lymphocytes = assay: Formation of rosette (T lymphocytes with sheep erythrocytes) (Example 9, Table 5); type: cell-based, mice; settings: C: control, only antiviral drug (80 μg/ml)
Procedure: (§1) Male mice weight 18-20 g were used in the experimetns. The dosage of SDI is 5-10 mg/kg injected intraperitoneally. The normal mice were injected with same volume of normal saline. These injections were repeated daily for 3-5 days. On the last say, both antiviral drug and antiviral drug+SDI group were injected interaperitoneally.
a. Obtain venous blood in heparin (10 IU ml^-1) and perform a total and differential leucocyte count.
b. Isolate lymphocyte fraction. Count vaiable lymphocytes calculate and record total yield. Adjust to 5×10^5 lymphocytes ml^-1.
c. Wash sheep erythrocytes by centrifugation (400 g for 10 minutes at room temperature) and ajust to a 2.5% v/v suspension in PBS.
d. Mix 0.1 ml of the lymphocyte suspension with 0.1 ml of sheep erythrocytes and centrifuge at 225 g for 5 minutes at room temperature.
e. Incubate for 2 hours at 4° C.
f. Add 50 μl of fetal bovine serum (FBS).
g. Resuspend cell mixture by gently tapping the tube and pipette a sample into a haemocytomer.
h. Count 200 lymphocytes and determine the percentage of cell with 3 or more erythrocytes attached. (Three are T lymphocytes).
i. Calculate the absolute number of T lymphocytes ml^-1 of original blood.

lymphocytes = assay: Lymphoblastoid transformation test, 3H-TdR (Example 7, Table 3); type: cell-based, mice; settings: C: control, only antiviral drug (80 μg/ml)
Procedure: as §1
1. Reagents and conditions for cell culture
a. Culture media--RPMI 1640, madium 199 minimal essential medium (Eagle).
b. 37° C. to maintain the pH of the medium at 7.31.
c. Serum--generally 15-20% fetal bovine serum was incorporated.
d. Gaseous phase 5% CO2 in air;
e. Cell concentration--generally 1-2×10^6 /ml;
f. Stimulants--20 μg/ml for phytoagglutinin containing polysaccharide (PHA-M) or 10 μg/ml for polysaccharide-free purified phytoagglutinin (PHA-P).
2. Measured by liquid scintillation
a. The conditions of cell culture are same as above. ^3 H-TdR was added after 48 hours of incubation at a final concentration of 2 μCi/ml and continue the incubation for 24 hours.
b. Wash the cells twice with cold normal saline and the erythrocytes were lysed by addition of distilled-water and equal volume of 3.6% NaCi was then added. The intact lymphocytes and add 2 ml of 10% trichloroacetic acid to precipitate the protein. Wash twice with normal saline. Add 2 ml of ethanol: ether (1:1) to wash once. 0.2 ml of formic acid was then added for digestion till the precipitate was dissolved.
c. Add 4 ml of scintillation fluid to 0.1 ml of the final sample and count in a liquid scintillation counter.

peritoneal macrophage = assay: Phagocytosis of peritoneal macrophage of mice, 51Cr chick red blood cells (Example 10, Table 6); type: cell-based; settings: C: control, only antiviral drug (80 μg/ml)
Procedure: as §1
Count the number of macrophages in the peritoneal exudate of mice and adjust to 1×10^7 cell/ml with normal saline. Add 0.1 ml of the macrophage suspension. i.e. 1×10^6 cells to each well on the plastic plate for test. Lable the chick red blood cell with ^51 Cr. Suspend the labelled chick red blood cell and adjust to 1.5×10^8/ml, add 0.1 ml, i.e. 1.5×10^7, to each well. Incubate at 37° C. for 30 minutes. Wash thoughly to remove the free chick red blood cells. Count each well in a γ-counter.

white blood cells = assay: White blood cells assay (Example 8, Table 4); type: in vivo, mice; settings: C: control, only antiviral drug (80 μg/ml); 7 days
Procedure: as §1
Action of SDI II and antiviral drug on white blood cells was investigated by means of white blood cells assay. […] Time of treatment is 7 days.

[2] = system: bone marrow stem cells (CFU-S); assay: Spleen colony assay, bone marrow stem cells (CFU-S) (Example 6, Table 2); type: in vivo, mice; settings: C: control, only antiviral drug (80 μg/ml)
Procedure: as §1
Effects of SDI on hemopoietic system were investigated.

YAC-1 or EAC cells = assay: Natural killer cell cytotoxicity, 51Cr release from YAC-1 or EAC cells (Example 5, Table 1); type: cell-based, mice; settings: C: control, only antiviral drug (80 μg/ml); E:T 100:1
Procedure: as §1
Natural Killer (NK) Cells can destrou many viruse. NK cells may be important in limiting early spread of virus, also Natural Killer Cytotoxicity is effective antiviral agent. NK cell cytoxicity was tested by chromium release which assay using ^51 Cr-labelled YAC-1 or EAC cell line as targer cells. […] The effector cell to target cell (E:T) radio is 100:1. After the incubation the tuber were spun, the amount of ^51 Cr-released in 0.1 ml supernatant was counted by r-scintillation counter. Percent cytotoxicity was calculated from the following formula: [formula]

DNA synthesis = settings: cited from earlier work

Nc1ncn([C@H]2C[C@H](O)[C@@H](CO)O2)c(=O)n1 [AZCdR, 5'-Aza-2'-deoxycytidine]
side effects (marrow, blood) ([1]; various degree): bone-marrow suppression, megaloblastic anemia and recreasing total white blood cells

NC(=O)c1ncn([C@@H]2O[C@H](CO)[C@@H](O)[C@H]2O)n1 [Rib, Ribofuranosyl-Trazole-Carboxamide]
Rate of formed rosette (T lymphocytes): 28.7%
side effects (marrow, blood) ([1]; various degree): bone-marrow suppression, megaloblastic anemia and recreasing total white blood cells
CPM (lymphoblastoid transformation) (lymphocytes): 763 CPM
CPM (phagocytosis of peritoneal macrophage) (peritoneal macrophage): 540 CPM
White blood cells (white blood cells): 4900 mL⁻¹
Mean CFU ± SD [2]: 4.2
% Cytotoxicity (NK cells) (YAC-1 or EAC cells): 22.3%

Nc1ccn([C@@H]2O[C@H](CO)[C@@H](O)[C@@H]2O)c(=O)n1 [Ara-C, Cytarabine]
Rate of formed rosette (T lymphocytes): 23.7%
side effects (marrow, blood) ([1]; various degree): bone-marrow suppression, megaloblastic anemia and recreasing total white blood cells
CPM (lymphoblastoid transformation) (lymphocytes): 654 CPM
CPM (phagocytosis of peritoneal macrophage) (peritoneal macrophage): 512 CPM
White blood cells (white blood cells): 4200 mL⁻¹
Mean CFU ± SD [2]: 3.8

Nc1nc2c(ncn2COCCO)c(=O)[nH]1 [ACV, Acyclovir]
side effects (marrow, blood) ([1]; various degree): bone-marrow suppression, megaloblastic anemia and recreasing total white blood cells

Cc1cn([C@H]2C[C@H](N=[N+]=[N-])[C@@H](CO)O2)c(=O)[nH]c1=O [AZT, 3'-Azido-3'-deoxythymidine]
DNA synthesis (DNA synthesis): blocker of DNA synthesis
side effects (marrow, blood) ([1]; various degree): bone-marrow suppression and megaloblastic anemia, and decreasing total white blood cells

Nc1ncnc2c1ncn2[C@H]1CC[C@@H](CO)O1 [DDA, 2',3'-Dideoxyadenoside]
Rate of formed rosette (T lymphocytes): 22.4%
side effects (marrow, blood) ([1]; various degree): bone-marrow suppression, megaloblastic anemia and recreasing total white blood cells
CPM (lymphoblastoid transformation) (lymphocytes): 502 CPM
CPM (phagocytosis of peritoneal macrophage) (peritoneal macrophage): 489 CPM
White blood cells (white blood cells): 4200 mL⁻¹
Mean CFU ± SD [2]: 4.2
% Cytotoxicity (NK cells) (YAC-1 or EAC cells): 18.0%

Nc1ccn([C@H]2CC[C@@H](CO)O2)c(=O)n1 [DDC, 2',3'-Dideoxycytidine]
side effects (marrow, blood) ([1]; in vivo): bone-marrow suppression, megaloblastic anemia and recreasing total white blood cells

N=c1ccn2c(n1)O[C@H]1[C@H](O)[C@@H](CO)O[C@H]12 [C.C., Cyclocytidine]
side effects (marrow, blood) ([1]; various degree): bone-marrow suppression, megaloblastic anemia and recreasing total white blood cells

O=P1(N(CCCl)CCCl)NCCCO1 (centres unmarked) [CP, Cyclophosphamide]
Rate of formed rosette (T lymphocytes): 20.7%
side effects (marrow, blood) ([1]; various degree): bone-marrow suppression, megaloblastic anemia and recreasing total white blood cells
CPM (lymphoblastoid transformation) (lymphocytes): 620 CPM
CPM (phagocytosis of peritoneal macrophage) (peritoneal macrophage): 481 CPM
White blood cells (white blood cells): 5300 mL⁻¹
Mean CFU ± SD [2]: 4.0
% Cytotoxicity (NK cells) (YAC-1 or EAC cells): 20.7%

O=c1cnn([C@@H]2O[C@H](CO)[C@@H](O)[C@H]2O)c(=O)[nH]1 [AZU, 6-Azauridune]
side effects (marrow, blood) ([1]; various degree): bone-marrow suppression, megaloblastic anemia and recreasing total white blood cells

O=c1[nH]c(=O)n([C@H]2C[C@H](O)[C@@H](CO)O2)cc1I [IDU, Idoxuridine]
side effects (marrow, blood) ([1]; in vivo): bone-marrow suppression, megaloblastic anemia and recreasing total white blood cells

Nc1ncn([C@@H]2O[C@H](CO)[C@@H](O)[C@H]2O)c(=O)n1 [AZC]
Rate of formed rosette (T lymphocytes): 19.8%
CPM (lymphoblastoid transformation) (lymphocytes): 441 CPM
CPM (phagocytosis of peritoneal macrophage) (peritoneal macrophage): 401 CPM
White blood cells (white blood cells): 3800 mL⁻¹
Mean CFU ± SD [2]: 3.1
% Cytotoxicity (NK cells) (YAC-1 or EAC cells): 11.2%
